Like-named read-outs stand apart in the source and are kept apart here.
Tests used:
E6 WT/E6AP [1] = biological target: T1, E6 WT/E6AP (Human papillomavirus type 16, UniProt P03126); test: biochemical; format: binding; details: for Emax: 24 h, read-out: FP maximal inhibition (max %) E6 WT/E6AP; for IC50: FP IC50 at 24 h (μM) E6 WT/E6AP
E6 WT/E6AP [2] = biological target: T1, E6 WT/E6AP; test: biochemical; format: binding; details: WT 16E6; for inhibition at 10 µM: 10 μM compound; for inhibition at 100 µM: 100 μM compound
E6C51S/E6AP [3] = biological target: T2, E6C51S/E6AP (Human papillomavirus type 16, UniProt P03126, C58S); test: E6/E6AP binding assay (amylose-bound MBP-16E6, E6AP-BAP activity), C51S 16E6; set-up: species or system HPV-16; details: for % Inhibition @ 10 μM E6C51S/E6AP: 10 μM compound; for % Inhibition @ 100 μM E6C51S/E6AP: 100 μM compound
T2 sequence (P03126 whole entry C58S, looked up): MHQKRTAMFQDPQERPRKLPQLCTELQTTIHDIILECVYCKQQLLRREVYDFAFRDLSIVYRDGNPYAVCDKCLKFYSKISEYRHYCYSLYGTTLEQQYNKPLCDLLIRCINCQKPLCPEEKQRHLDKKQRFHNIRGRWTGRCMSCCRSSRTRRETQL

E6 WT/E6AP [4] = biological target: T1, E6 WT/E6AP; test: biochemical; format: binding; details: at 24 h; for IC50: 2 μM E6 WT pre-incubated with compound; for Emax: E6 WT, read-out: BLI maximal Inhibition (max %) E6 WT/E6AP
E6C51S/E6AP [5] = biological target: T2, E6C51S/E6AP; test: BLI binding assay, E6 C51S binding to captured E6AP; set-up: species or system HPV-16; details: at 24 h; E6 C51S

T1 sequence (P03126 8-158): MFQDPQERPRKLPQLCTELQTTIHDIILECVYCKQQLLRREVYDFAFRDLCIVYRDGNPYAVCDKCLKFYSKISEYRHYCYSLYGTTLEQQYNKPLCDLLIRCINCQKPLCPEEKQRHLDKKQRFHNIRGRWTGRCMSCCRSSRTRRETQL

Compound	Emax (E6 WT/E6AP [1]) [%]	IC50 (E6 WT/E6AP [1]) [µM]	inhibition at 10 µM (E6 WT/E6AP [2]) [%]	inhibition at 100 µM (E6 WT/E6AP [2]) [%]	% Inhibition @ 10 μM E6C51S/E6AP (E6C51S/E6AP [3]) [%]	% Inhibition @ 100 μM E6C51S/E6AP (E6C51S/E6AP [3]) [%]	IC50 (E6 WT/E6AP [4]) [µM]	Emax (E6 WT/E6AP [4]) [%]	FP maximal inhibition (max %) E6 WT/E6AP (E6 WT/E6AP [1]; at 24 h)	BLI maximal Inhibition (max %) E6C51S/E6AP (E6C51S/E6AP [5])
C=CC(=O)N1CCN(c2nc(-c3ccccc3)nc3sc4c(c23)CCCC4)CC1 [EIN-133, 1-(4-(2-phenyl-5,6,7,8-tetrahydrobenzo[4,5]thieno[2,3-d]pyrimidin-4-yl)piperazin-1-yl)prop-2-en-1-one]	9	10.4 ± 0.7	26 ± 7	41 ± 5	0	0	14.9 ± 6.6	60		
C=CC(=O)N1CCN(c2nc(NCc3ccccc3)nc3sc4c(c23)CCCC4)CC1 [EIN-134, 1-(4-(2-(benzylamino)-5,6,7,8-tetrahydrobenzo[4,5]thieno[2,3-d]pyrimidin-4-yl)piperazin-1-yl)prop-2-en-1-one]	11	12.1 ± 0.7	18 ± 6	35 ± 4	0	0	32.6 ± 19.2	100		
C=CC(=O)N1CCN(c2nc(Cc3ccccc3)nc3sc4c(c23)CCCC4)CC1 [EIN-135, 1-(4-(2-benzyl-5,6,7,8-tetrahydrobenzo[4,5]thieno[2,3-d]pyrimidin-4-yl)piperazin-1-yl)prop-2-en-1-one]	27	15.4 ± 0.4	0	52 ± 5	12 ± 3	25 ± 4	10.9 ± 3.4	85		
C=CC(=O)N1CCN(c2nc(CCc3ccc(F)cc3)nc3sc4c(c23)CCCC4)CC1 [EIN-136, 1-(4-(2-(4-fluorophenethyl)-5,6,7,8-tetrahydrobenzo[4,5]thieno[2,3-d]pyrimidin-4-yl)piperazin-1-yl)prop-2-en-1-one]	55	12 ± 0.9	41 ± 7	69 ± 2			2.7 ± 0.3	100		
C=CC(=O)N1CCN(c2nc(CCc3cccc(F)c3)nc3sc4c(c23)CCCC4)CC1 [EIN-137, 1-(4-(2-(3-fluorophenethyl)-5,6,7,8-tetrahydrobenzo[4,5]thieno[2,3-d]pyrimidin-4-yl)piperazin-1-yl)prop-2-en-1-one]			35 ± 4	56 ± 4	15 ± 3	16 ± 5	4.9 ± 0.6	90		
C=CC(=O)N1CCN(c2nc(CCc3ccccc3F)nc3sc4c(c23)CCCC4)CC1 [EIN-138, 1-(4-(2-(2-fluorophenethyl)-5,6,7,8-tetrahydrobenzo[4,5]thieno[2,3-d]pyrimidin-4-yl)piperazin-1-yl)prop-2-en-1-one]			20 ± 6	57 ± 3	16 ± 6	19 ± 7	4.1 ± 0.5	90		
C=CC(=O)N1CCN(c2nc(N(C)Cc3ccccc3)nc3sc4c(c23)CCCC4)CC1 [EIN-139, 1-(4-(2-(benzyl(methyl)amino)-5,6,7,8-tetrahydrobenzo[4,5]thieno[2,3-d]pyrimidin-4-yl)piperazin-1-yl)prop-2-en-1-one]	8	33.1 ± 1.3	13 ± 7	21 ± 4	0	6 ± 3				
C=CC(=O)N1CCN(c2nc(CCc3cccc(OC)c3)nc3sc4c(c23)CCCC4)CC1 [EIN-143, 1-(4-(2-(3-methoxyphenethyl)-5,6,7,8-tetrahydrobenzo[4,5]thieno[2,3-d]pyrimidin-4-yl)piperazin-1-yl)prop-2-en-1-one]			44 ± 9	78 ± 3	19 ± 7	23 ± 10	2.5 ± 0.5	100	(max 93%)	
C=CC(=O)N1CCN(c2nc(CCc3ccc(OC)cc3)nc3sc4c(c23)CCCC4)CC1 [EIN-144, 1-(4-(2-(4-methoxyphenethyl)-5,6,7,8-tetrahydrobenzo[4,5]thieno[2,3-d]pyrimidin-4-yl)piperazin-1-yl)prop-2-en-1-one]	63	14.8 ± 1.2	12 ± 6	45 ± 4	9 ± 9	17 ± 5	1.6 ± 0.5	62		
C=CC(=O)N1CCN(c2nc(CCc3ccccc3OC)nc3sc4c(c23)CCCC4)CC1 [EIN-145, 1-(4-(2-(2-methoxyphenethyl)-5,6,7,8-tetrahydrobenzo[4,5]thieno[2,3-d]pyrimidin-4-yl)piperazin-1-yl)prop-2-en-1-one]	59	15 ± 1.2	32 ± 4	51 ± 2	20 ± 6	23 ± 7	2 ± 0.9	65		
CC#CC(=O)N1CCN(c2nc(CCc3cccc(OC)c3)nc3sc4c(c23)CCCC4)CC1 [EIN-147, 1-(4-(2-(3-methoxyphenethyl)-5,6,7,8-tetrahydrobenzo[4,5]thieno[2,3-d]pyrimidin-4-yl)piperazin-1-yl)but-2-yn-1-one]								100		(max 100%)
COc1cccc(CCc2nc(N3CCN(C(=O)/C=C/CN(C)C)CC3)c3c4c(sc3n2)CCCC4)c1 [EIN-148, (E)-4-(dimethylamino)-1-(4-(2-(3-methoxyphenethyl)-5,6,7,8-tetrahydrobenzo[4,5]thieno[2,3-d]pyrimidin-4-yl)piperazin-1-yl)but-2-en-1-one]	100	20.4 ± 3					3.3 ± 0.3	100		
C=CC(=O)N1CCN(c2nc(Cc3ccccc3)nc3ccccc23)CC1 [EIN-156, 1-(4-(2-benzylquinazolin-4-yl)piperazin-1-yl)prop-2-en-1-one]								100		(max 100%)
C=CC(=O)N1CCN(c2nc(-c3ccccc3OC)nc3ccccc23)CC1 [EIN-160, 1-(4-(2-(2-methoxyphenyl)quinazolin-4-yl)piperazin-1-yl)prop-2-en-1-one]	100	128 ± 2.3								
C=CC(=O)N1CCN(c2nc(-c3ccc(OC)cc3)nc3ccccc23)CC1 [EIN-161, 1-(4-(2-(4-methoxyphenyl)quinazolin-4-yl)piperazin-1-yl)prop-2-en-1-one]	91	13.3 ± 1.9								
C=CC(=O)N1CCN(c2nc(-c3ccc(OC(F)(F)F)cc3)nc3ccccc23)CC1 [EIN-162, 1-(4-(2-(4-(trifluoroniethoxy)phenyl)quinazolin-4-yl)piperazin-1-yl)prop-2-en-1-one]	100	105 ± 13.7								
C=CC(=O)N1CCN(c2nc(-c3ccc(OC4CC4)cc3)nc3ccccc23)CC1 [EIN-163, 1-(4-(2-(4-cyclopropoxyphenyl)quinazolin-4-yl)piperazin-1-yl)prop-2-en-1-one]	100	41.6 ± 2.8								
C=CC(=O)N1CCN(c2nc(-c3ccc(OC)cc3F)nc3ccccc23)CC1 [EIN-164, 1-(4-(2-(2-fluoro-4-methoxyphenyl)quinazolin-4-yl)piperazin-1-yl)prop-2-en-1-one]	100	22.9 ± 1.3								
C=CC(=O)N1CCN(c2nc(-c3ccc(OC)cc3)nc3cccnc23)CC1 [EIN-165, 1-(4-(2-(4-methoxyphenyl)pyrido[3,2-d]pyrimidin-4-yl)piperazin-1-yl)prop-2-en-1-one]	100	38.2 ± 2.1								
